Format: physicochemical
Description: The dietary butyrate can comprise a phenylalanine amide derivative of butyric acid. In fact, use of a phenylalanine amide derivative of butyric acid provides for improved organoleptic and physicochemical characteristics as it is an odorless and colorless solid crystalline powder. Furthermore, the purification of phenylalanine amide derivatives of butyric acid may be particularly economical for purification in terms of the cost to purify versus the yield of compound ratio. Accordingly, in certain embodiments, the dietary butyrate may comprise an acid-stable butyrate amide with the amino acid phenylalanine, such as phenylalanine-butyramide (“FBA”). […] Moreover, the solubility of FBA in water is satisfactory as it produces clear solutions up to the concentration 0.1 M and suspensions at higher concentrations. Accordingly, FBA is a suitable form of dietary butyrate that may be incorporated into powdered nutritional compositions that are to be reconstituted with water or some other type of liquid.

solubility in water (concentration up to which clear solutions are produced): ≤ 100 mM
stability to acids and alkalis: stable to acids and alkalis
Substance: phenylalanine-butyramide [FBA]

From US20170127693A1, “NUTRITIONAL COMPOSITIONS CONTAINING BUTYRATE AND USES THEREOF” (Mead Johnson Nutrition Company, priority 2015, published 2017)
